Data reported in patent publication US8906889B2, “C-3 cycloalkenyl triterpenoids with HIV maturation inhibitory activity” (priority 2012, dated 2014).
Structures can show the parent of a compound that is named as a salt.

tested on: recombinant NL4-3 virus (Renilla luciferase, Gag P373S); experiment: HIV cell culture assay (luciferase reporter, MT-2 cells); assay type: cell-based; details: Renilla, NL43, MT-2 cells infected for 4-5 days with NLRluc recombinants; luciferase activity
Experimental: MT-2 cells and 293T cells were obtained from the NIH AIDS Research and Reference Reagent Program. MT-2 cells were propagated in RPMI 1640 media supplemented with 10% heat inactivated fetal bovine serum, […]. The 293T cells were propagated in DMEM media supplemented with 10% heat inactivated fetal bovine serum (FBS), 100 units/ml penicillin G and 100 μg/ml streptomycin. The proviral DNA clone of NL4-3 was obtained from the NIH AIDS Research and Reference Reagent Program. A recombinant NL4-3 virus, in which a section of the nef gene from NL4-3 was replaced with the Renilla luciferase gene, was used as a reference virus. In addition, residue Gag P373 was converted to P373S. Briefly, the recombinant virus was prepared by transfection of the altered proviral clone of NL4-3. Transfections were performed in 293T cells using LipofectAMINE PLUS from Invitrogen (Carlsbad, Calif.), according to manufacturer's instruction. The virus was titered in MT-2 cells using luciferase enzyme activity as a marker. Luciferase was quantitated using the Dual Luciferase kit from Promega (Madison, Wis.), with modifications to the manufacturer's protocol. The diluted Passive Lysis solution was pre-mixed with the re-suspended Luciferase Assay Reagent and the re-suspended Stop & Glo Substrate (2:1:1 ratio). Fifty (50) μL of the mixture was added to each aspirated well on assay plates and luciferase activity was measured immediately on a Wallac TriLux (Perkin-Elmer). Antiviral activities of inhibitors toward the recombinant virus were quantified by measuring luciferase activity in cells infected for 4-5 days with NLRluc recombinants in the presence serial dilutions of the inhibitor.

In order of falling EC50:
1. C=C(C)[C@@H]1CC[C@]2(NCCN3CCS(=O)(=O)CC3)CC[C@]3(C)[C@H](CC[C@@H]4[C@@]5(C)CC=C(C6=CCC(C(=O)O)(C(=O)O)CC6)C(C)(C)[C@@H]5CC[C@]43C)[C@@H]12 [Example 7, 4-((1R,3aS,5aR,5bR,7aR,11aS,11bR,13aR,13bR)-3a-((2-(1,1-dioxidothiomorpholino)ethyl)amino)-5a,5b,8,8,11a-pentamethyl-1-(prop-1-en-2-yl)-2,3,3a,4,5,5a,5b,6,7,7a,8,11,11a,11b,12,13,13a,13b-octadecahydro-1H-cyclopenta[a]chrysen-9-yl)cyclohex-3-ene-1,1-dicarboxylic acid, TFA]  100 nM
2. CC(C)[C@@H]1CC[C@]2(NCCN3CCS(=O)(=O)CC3)CC[C@]3(C)[C@H](CC[C@@H]4[C@@]5(C)CC=C(C6CC7(C6)CC(C(=O)O)(C(=O)O)C7)C(C)(C)[C@@H]5CC[C@]43C)[C@@H]12 [Example 5, 6-((1S,3aS,5aR,5bR,7aR,11aS,11bR,13aR,13bR)-3a-((2-(1,1-dioxidothiomorpholino)ethyl)amino)-1-isopropyl-5a,5b,8,8,11a-pentamethyl-2,3,3a,4,5,5a,5b,6,7,7a,8,11,11a,11b,12,13,13a,13b-octadecahydro-1H-cyclopenta[a]chrysen-9-yl)spiro[3.3]heptane-2,2-dicarboxylic acid, TFA]  40 nM
3. C=C(C)[C@@H]1CC[C@]2(NCCN3CCS(=O)(=O)CC3)CC[C@]3(C)[C@H](CC[C@@H]4[C@@]5(C)C=CC(=C6CC7(C6)CC(C(=O)O)(C(=O)O)C7)C(C)(C)[C@@H]5CC[C@]43C)[C@@H]12 [Example 2, 6-((1R,3aS,5aR,5bR,7aR,11aS,11bR,13aR,13bR)-3a-((2-(1,1-dioxidothiomorpholino)ethyl)amino)-5a,5b,8,8,11a-pentamethyl-1-(prop-1-en-2-yl)-2,3,3a,4,5,5a,6,7,7a,8,11b,12,13,13a-tetradecahydro-1H-cyclopenta[a]chrysen-9(5bH,11aH,13bH)-ylidene)spiro[3.3]heptane-2,2-dicarboxylic acid, HCl]  30 nM
4. C=C(C)[C@@H]1CC[C@]2(C(=O)O)CC[C@]3(C)[C@H](CC[C@@H]4[C@@]5(C)CC=C(C6=CC7(C6)CC(C(=O)O)(C(=O)O)C7)C(C)(C)[C@@H]5CC[C@]43C)[C@@H]12 [Example 6, 6-((1R,3aS,5aR,5bR,7aR,11aS,11bR,13aR,13bR)-3a-carboxy-5a,5b,8,8,11a-pentamethyl-1-(prop-1-en-2-yl)-2,3,3a,4,5,5a,5b,6,7,7a,8,11,11a,11b,12,13,13a,13b-octadecahydro-1H-cyclopenta[a]chrysen-9-yl)spiro[3.3]hept-5-ene-2,2-dicarboxylic acid]  30 nM
5. C=C(C)[C@@H]1CC[C@]2(NCCN3CCS(=O)(=O)CC3)CC[C@]3(C)[C@H](CC[C@@H]4[C@@]5(C)CC=C(C6=CC7(C6)CC(C(=O)O)(C(=O)O)C7)C(C)(C)[C@@H]5CC[C@]43C)[C@@H]12 [Example 1, 6-((1R,3aS,5aR,5bR,7aR,11aS,11bR,13aR,13bR)-3a-((2-(1,1-dioxidothiomorpholino)ethyl)amino)-5a,5b,8,8,11a-pentamethyl-1-(prop-1-en-2-yl)-2,3,3a,4,5,5a,5b,6,7,7a,8,11,11a,11b,12,13,13a,13b-octadecahydro-1H-cyclopenta[a]chrysen-9-yl)spiro[3.3]hept-5-ene-2,2-dicarboxylic acid, HCl]  10 nM
6. C=C(C)[C@@H]1CC[C@]2(NCCN3CCN(S(C)(=O)=O)CC3)CC[C@]3(C)[C@H](CC[C@@H]4[C@@]5(C)CC=C(C6=CCC(C(=O)O)CC6)C(C)(C)[C@@H]5CC[C@]43C)[C@@H]12 (stereo partly drawn) [Example 12, 4-((1R,3aS,5aR,5bR,7aR,11aS,11bR,13aR,13bR)-5a,5b,8,8,11a-pentamethyl-3a-((2-(4-(methylsulfonyl)piperazin-1-yl)ethyl)amino)-1-(prop-1-en-2-yl)-2,3,3a,4,5,5a,5b,6,7,7a,8,11,11a,11b,12,13,13a,13b-octadecahydro-1H-cyclopenta[a]chrysen-9-yl)cyclohex-3-enecarboxylic acid, TFA]  3.03 nM
7. C=C(C)[C@@H]1CC[C@]2(NCCN3CCS(=O)(=O)CC3)CC[C@]3(C)[C@H](CC[C@@H]4[C@@]5(C)CC=C(C6=CCC(O)(C(=O)O)CC6)C(C)(C)[C@@H]5CC[C@]43C)[C@@H]12 (stereo partly drawn) [Example 11, 4-((1R,3aS,5aR,5bR,7aR,11aS,11bR,13aR,13bR)-3a-((2-(1,1-dioxidothiomorpholino)ethyl)amino)-5a,5b,8,8,11a-pentamethyl-1-(prop-1-en-2-yl)-2,3,3a,4,5,5a,5b,6,7,7a,8,11,11a,11b,12,13,13a,13b-octadecahydro-1H-cyclopenta[a]chrysen-9-yl)-1-hydroxycyclohex-3-enecarboxylic acid, TFA]  1.99 nM
8. C=C(C)[C@@H]1CC[C@]2(NCCN3CCS(=O)(=O)CC3)CC[C@]3(C)[C@H](CC[C@@H]4[C@@]5(C)CC=C(C6=CC7(C6)CC(C(=O)O)C7)C(C)(C)[C@@H]5CC[C@]43C)[C@@H]12 (stereo partly drawn) [Example 3, 6-((1R,3aS,5aR,5bR,7aR,11aS,11bR,13aR,13bR)-3a-((2-(1,1-dioxidothiomorpholino)ethyl)amino)-5a,5b,8,8,11a-pentamethyl-1-(prop-1-en-2-yl)-2,3,3a,4,5,5a,5b,6,7,7a,8,11,11a,11b,12,13,13a,13b-octadecahydro-1H-cyclopenta[a]chrysen-9-yl)spiro[3.3]hept-5-ene-2-carboxylic acid, HCl]  1.54 nM
9. C=C(C)[C@@H]1CC[C@]2(NCCN3CCS(=O)(=O)CC3)CC[C@]3(C)[C@H](CC[C@@H]4[C@@]5(C)CC=C(C6=CCC(C(=O)O)CC6)C(C)(C)[C@@H]5CC[C@]43C)[C@@H]12 (stereo in doubt) [Example 10, (S)-4-((1R,3aS,5aR,5bR,7aR,11aS,11bR,13aR,13bR)-3a-((2-(1,1-dioxidothiomorpholino)ethyl)amino)-5a,5b,8,8,11a-pentamethyl-1-(prop-1-en-2-yl)-2,3,3a,4,5,5a,5b,6,7,7a,8,11,11a,11b,12,13,13a,13b-octadecahydro-1H-cyclopenta[a]chrysen-9-yl)cyclohex-3-enecarboxylic acid, TFA]  1.26 nM
10. CC(C)[C@@H]1CC[C@]2(NCCN3CCS(=O)(=O)CC3)CC[C@]3(C)[C@H](CC[C@@H]4[C@@]5(C)CC=C(C6=CCC(C(=O)O)CC6)C(C)(C)[C@@H]5CC[C@]43C)[C@@H]12 (stereo partly drawn) [Example 8, 4-((1S,3aS,5aR,5bR,7aR,11aS,11bR,13aR,13bR)-3a-((2-(1,1-dioxidothiomorpholino)ethyl)amino)-1-isopropyl-5a,5b,8,8,11a-pentamethyl-2,3,3a,4,5,5a,5b,6,7,7a,8,11,11a,11b,12,13,13a,13b-octadecahydro-1H-cyclopenta[a]chrysen-9-yl)cyclohex-3-enecarboxylic acid, TFA]  1.01 nM
11. C=C(C)[C@@H]1CC[C@]2(NCCN3CCC(S(C)(=O)=O)CC3)CC[C@]3(C)[C@H](CC[C@@H]4[C@@]5(C)CC=C(C6=CCC(C(=O)O)CC6)C(C)(C)[C@@H]5CC[C@]43C)[C@@H]12 (stereo partly drawn) [Example 13, 4-((1R,3aS,5aR,5bR,7aR,11aS,11bR,13aR,13bR)-5a,5b,8,8,11a-pentamethyl-3a-((2-(4-(methylsulfonyl)piperidin-1-yl)ethyl)amino)-1-(prop-1-en-2-yl)-2,3,3a,4,5,5a,5b,6,7,7a,8,11,11a,11b,12,13,13a,13b-octadecahydro-1H-cyclopenta[a]chrysen-9-yl)cyclohex-3-enecarboxylic acid, TFA]  0.975 nM
12. C=C(C)[C@@H]1CC[C@]2(NCCN3CCS(=O)(=O)CC3)CC[C@]3(C)[C@H](CC[C@@H]4[C@@]5(C)CC=C(C6=CCC(C(=O)O)CC6)C(C)(C)[C@@H]5CC[C@]43C)[C@@H]12 (stereo in doubt) [Example 9, (R)-4-((1R,3aS,5aR,5bR,7aR,11aS,11bR,13aR,13bR)-3a-((2-(1,1-dioxidothiomorpholino)ethyl)amino)-5a,5b,8,8,11a-pentamethyl-1-(prop-1-en-2-yl)-2,3,3a,4,5,5a,5b,6,7,7a,8,11,11a,11b,12,13,13a,13b-octadecahydro-1H-cyclopenta[a]chrysen-9-yl)cyclohex-3-enecarboxylic acid, TFA]  0.892 nM
13. C=C(C)[C@@H]1CC[C@]2(NCCN3CCS(=O)(=O)CC3)CC[C@]3(C)[C@H](CC[C@@H]4[C@@]5(C)CC=C(C6=CCC(C(=O)O)CC6)C(C)(C)[C@@H]5CC[C@]43C)[C@@H]12 (stereo partly drawn) [Example 4, 4-((1R,3aS,5aR,5bR,7aR,11aS,11bR,13aR,13bR)-3a-((2-(1,1-dioxidothiomorpholino)ethyl)amino)-5a,5b,8,8,11a-pentamethyl-1-(prop-1-en-2-yl)-2,3,3a,4,5,5a,5b,6,7,7a,8,11,11a,11b,12,13,13a,13b-octadecahydro-1H-cyclopenta[a]chrysen-9-yl)cyclohex-3-enecarboxylic acid, TFA]  0.659 nM
